According to patent US20100249064A1, “METHODS AND COMPOSITIONS FOR TREATING DISEASES AND CONDITIONS INVOLVING HIGHER MOLECULAR WEIGHT HYALURONAN” (University of Chicago, priority 2007, published 2010):

Assays:
MARCKS and NHE1 = test: LPS-induced phosphorylation of MARCKS and NHE1 (immunoprecipitation/immunoblot); assay type: cell-based, human; conditions: LPS 1 μg/ml, 4 hours, HMW-HA 100 nM or Y-27632 500 nM
caveolin-1 = test: Caveolin-1 expression in mouse lung homogenates (immunoblot); assay type: in vivo; conditions: HMW-HA+LPS
Protocol: Animal Preparation and Treatment. Male C57BL/6J, B6129N2, CD44^−/− or caveolin-1^−/− mice (8-10 weeks, Jackson Laboratories, Bar Harbor, Me.) were anesthetized with intraperitoneal ketamine (150 mg/kg) and acetylpromazine (15 mg/kg) before exposure of the right internal jugular vein via neck incision. LPS (2.5 mg/kg) or water (control) were instilled intratracheally. Four hours later, mice receive high MW HA (1.5 mg/kg) or water control through the internal jugular vein. The animals were allowed to recover for 24 hours after LPS before bronchioalveolar lavage protein and cytokine concentration and/or lung immunohistochemistry/immunoblot analysis (Peng et al., 2004).
Immunoblot analysis of CD44 and Caveolin-1 expression in control, LPS- and HA-treated mouse lung homogenates. CD44 is highly likely to be important in lung disease as CD44−/− mice develop lung fibrosis, inflammatory cell recruitment and accumulation of hyaluronan fragments at sites of lung injury (Teder et al., 2002). […] Caveolin-1 can be differentially regulated in various models of acute lung injury (ALI). Monocrotaline-induced rodent pulmonary hypertension results in a loss of lung EC caveolin-1 expression (Mathew et al., 2004). In contrast, there is no change in pulmonary caveolin-1 expression in lipopolyscaaharide (LPS)-induced sepsis with lung injury (Garrean et al., 2006). […]

S1P1 and S1P3 Receptor = test: Tyrosine/serine/threonine phosphorylation of S1P receptors; assay type: cell-based, human; conditions: 100 nM HA
Protocol: Determination of Tyrosine/Serine/Threonine Phosphorylation of the S1P1 and S1P3 Receptor—Immunoprecipitation of solubilized proteins in IP buffer B (see above) took place with either rabbit anti-S1P1 receptor or mouse anti-S1P3 receptor antibody, which was followed by SDS-PAGE in 4-15% polyacrylamide gels and transfer onto Immobilon™ membranes (Millipore Corp., Bedford, Mass.). Following blockage of nonspecific sites with 5% bovine serum albumin, the blots were incubated with either rabbit anti-S1P1 antibody, mouse anti-S1P3 antibody, mouse anti-phospho-tyrosine, rabbit anti-phospho-serine antibody or rabbit anti-phospho-threonine antibody, and then incubated with horseradish peroxidase (HRP)-labeled goat anti-rabbit or goat anti-mouse IgG. Enhanced chemiluminescence (Amersham Biosciences) for visualization of immunoreactive bands then took place.

hyaluronidase = test: VEGF-induced hyaluronidase expression (immunoblot); assay type: cell-based, human; conditions: 100 nM HMW-HA, 100 nM VEGF
Protocol: Determination of the role of HMW-HA/CD44 interactions in regulating hyaluronidase activity and angiogenesis in vitro. Human pulmonary microvascular EC (HPMVEC) (Cambrex), grown in EBM-2 complete medium (Cambrex) at 37° C. in a humidified atmosphere of 5% CO2, 95% air, with passages 6-10 used for experimentation was treated with or without 100 nM HMW-HA and/or 100 nM VEGF in the presence or absence of CD44 isoform-specific blocking antibodies (EMD Biosciences), siRNA (scramble, CD44, Hyal-1, Hyal-2, Hyal-3 or Hyal-4) and the potent hyaluronidase inhibitor, L-ascorbic acid 6-hexadecanoate (Botzki et al., 2004) (Sigma). […] Treated EC will either be analyzed for protein expression, hyaluronidase activity or VEGF-induced proliferation, migration or tube formation. […] Cells from the upper and lower chamber were quantitated using the CellTiter96™ MTS assay (Promega, San Luis Obispo, Calif.) and read at 492 nm. % migration was defined as the # of cells in the lower chamber […] the number of cells in both the upper and lower chamber. Each assay was set up in triplicate, repeated at least five times and analyzed statistically by Student's t test (with statistical significance set at P<0.05). […] The in vitro cell proliferation assay was analyzed by measuring increases in cell number using the CellTiter96™ MTS assay (Promega, San Luis Obispo, Calif.) and read at 492 nm. […]

| Substance | LPS-induced phosphorylation of MARCKS and NHE1 (MARCKS and NHE1) | caveolin-1 expression in mouse lungs (caveolin-1) | S1P receptor phosphorylation (S1P1 and S1P3 Receptor) | VEGF-induced hyaluronidase expression (hyaluronidase) |
| --- | --- | --- | --- | --- |
| hyaluronan [HMW-HA] | inhibit LPS-induced phosphorylation of MARCKS and NHE1 | did not significantly alter caveolin-1 expression | promoted AKT1-mediated threonine phosphorylation of S1P1 receptor | inhibited VEGF-induced hyaluronidase expression |
| hyaluronan [LMW-HA, reference compound] |  |  | induced sequential AKT1-mediated S1P1 and Src/ROCK1/2-mediated S1P3 receptor phosphorylation/activation |  |
